From patent publication US8614181B2, “Stabilized pharmaceutical peptide compositions” (Novo Nordisk A/S, priority 2003, dated 2013) come the findings set out here.

The data set in a line: Thioflavin T-test (ThT) of physical stability (fibril formation) of pharmaceutical formulations after storage at 37° C. The format is physicochemical. The conditions noted are these: for Fluorescence units after storage at 37° C., T = 0 week / Fluorescence units after storage at 37° C., T = 1 month / Fluorescence units after storage at 37° C., T = 1 week: pH of pharmaceutical formulation 7.4. The method, then:
Before freeze drying the solution or suspension of the peptide it has been adjusted to the aimed pH. After freeze drying pharmaceutical formulations were prepared according to General procedure 1 and 2.
Preservative, isotonic agent and buffer were dissolved in water and pH adjusted to 7.4. Hereafter the freeze dried peptide was dissolved while stirring slowly. The pH was adjusted to 7.4 using Sodium Hydroxide and/or Hydrochloric Acid. Finally, the formulation was filtered through a 0.22 μm filter.
Preservative, isotonic agent and buffer were dissolved in water and pH adjusted to 7.4. The peptide was dissolved in water while stirring slowly. The two solutions were mixed and pH adjusted to 7.4 using Sodium Hydroxide and/or Hydrochloric acid. Finally, the formulation was filtered through a 0.22 μm filter.
Preservative, isotonic agent and buffer were dissolved in water and pH adjusted to 7.4 or lower. Compound 1 was dissolved in water while stirring slowly and pH is adjusted to 11.5 by the addition of Sodium Hydroxide. After approx. 5 min the two solutions were mixed and pH adjusted to 7.4 using Sodium Hydroxide and/or Hydrochloric acid. Finally, the formulation was filtered through a 0.22 μm filter.
Physical stability of the formulations is evaluated by means of the Thioflavin T-test. The physical stability of the different formulations is characterized by their tendency to form fibrils. A method to determine the presence of fibrils is the Thioflavin T-test. The histological thiazole dye Thioflavin T (ThT) is used as an indicator of amyloid fibril formation. The method is based on the fluorescent characteristics of ThT. […] The physical stability of the formulations is evaluated by the ThT-test after storage of the formulation is top filled glass cartridges for various time periods.

[1] abbreviates: pH of Compound 1 before freeze drying 8.0, 3 mg/ml.
Where [2] appears, read: pH of Compound 1 before freeze drying 9.5, 3 mg/ml.
Where [3] appears, read: pH of Compound 1 before freeze drying 9.5, 6.25 mg/ml.
Where [4] appears, read: pH of Compound 1 before freeze drying 11.5, 3 mg/ml.
[5] abbreviates: pH of Compound 1 before freeze drying 11.5, 6.25 mg/ml.
Setting [6] is: pH of solution containing the drug substance 8.0, 6.25 mg/ml.
[7] abbreviates: pH of solution containing the drug substance 11.5, 6.25 mg/ml.

Consider “Arg^34, Lys^26 (N^ε-(γ-Glu(N^α-hexadecanoyl)))GLP-1(7-37) [Compound 1]”, for which the “Physical stability (change in ThT) after 1 week and 1 months storage at 37° C.” value runs as follows: (Compound 1 adjusted to pH 8.0 before freeze drying) “an increase in ThT is seen”; (Compound 1 adjusted to pH 9.5 before freeze drying) “no increase in ThT is seen”; (Compound 1 adjusted to pH 11.5 before freeze drying) “no increase in ThT is seen”. Besides, the “Fluorescence units after storage at 37° C., T = 0 week” value runs as follows: under setting [1], 6 fluorescence units; under setting [2], 6 fluorescence units; under setting [4], 6 fluorescence units; under setting [5], 14 fluorescence units; under setting [6], 14 fluorescence units; under setting [7], 13 fluorescence units. Further, the “Fluorescence units after storage at 37° C., T = 1 month” value turned out to be 28 fluorescence units under setting [1]; 37 fluorescence units (pH of Compound 1 before freeze drying 8.0, 6.25 mg/ml); 7 fluorescence units under setting [2]; 13 fluorescence units under setting [3]; 7 fluorescence units under setting [4]; 14 fluorescence units under setting [5]. Moreover, the “Fluorescence units after storage at 37° C., T = 1 month” value is, setting by setting: under setting [6], 41 fluorescence units; under setting [7], 13 fluorescence units. In addition, the “Fluorescence units after storage at 37° C., T = 1 week” value (shortened to “Fluorescence units … T = 1 week”) under setting [3] was 13 fluorescence units; the “Fluorescence units … T = 1 week” value under setting [5] was 13 fluorescence units; the “Fluorescence units … T = 1 week” value under setting [6] came to 20 fluorescence units; the “Fluorescence units … T = 1 week” value under setting [7] came out at 12 fluorescence units. Further, the “Physical stability (change in ThT) after 1 month at 37° C.” value (pH raised above neutral pH (>8) in the solution containing the drug substance) is on record as “no increase in ThT is seen”.
